This is an account of results in patent publication US12600740B2, “Fluorinated N-acetyl glucosamine analogs and xylose derivatives” (UTI Limited Partnership, priority 2018, dated 2026).

In series [1] the test system is mouse astrocytes. In words: Propidium iodide/calcein AM toxicity on astrocytes. It is filed as cell-based. Conditions: 100 μM, 48 hours. How it is done:
Toxicity on astrocytes was assayed with propidium iodide/calcein AM […]. Live cells convert calcein AM into a green fluorescent product, whereas dying/dead cells are stained with propidium iodide.
96-well plates were imaged with ImageXpress® Micro Cellular Imaging and Analysis System (Molecular Devices, Sunnyvale, CA). Twelve images per well were collected at ×10 magnification. Images were processed with MetaXpress analysis software. OPC outgrowth was calculated by the MetaExpress® “neurite outgrowth” software module which uses fluorescence and user-modified parameters to document the overall extent of processes emanating from the cell soma, regardless of size of the protrusions or the number of branches. This was previously detailed elsewhere [Cua, R. C.; Lau, L. W.; Keough, M. B.; Midha, R.; Apte, S. S.; and Yong, V. W. Overcoming neurite-inhibitory chondroitin sulfate proteoglycans in the astrocyte matrix. Glia 2013, 61 (6), 972-84]. Live-dead cell assay was calculated with MetaXpress analysis software with the “multiwavelength cell scoring”, which uses fluorescent intensity to measure co-localization of calcein AM, propidium iodide, and […]. Data from the 12 images were averaged to a single data point per well, wherein the OPC outgrowth data calculated from the MetaExpress® “neurite outgrowth” readout was divided by data from the same 12 fields of cell number that was acquired through the multiwavelength cell scoring. This provided mean outgrowth per cell per well, with four well replicates per treatment. Experiments were repeated at least twice.
A mixture was created containing propidium iodide (10 μg/ml) to stain dead cells, 10 μM Calcein AM (ThermoFisher, #C3100MP) to identify live cells, and 2 drops per ml of media of NucBlue™ Live ReadyProbes™ Reagent (ThermoFisher, #R37605) to identify nuclei. The mixture was added to plate media and incubated for 20-30 minutes at 37° C. and 5% CO2 before imaging. Excitation/emission of calcein-AM (λex 490 nm, λem 515 nm), propidium iodide (λex 535 nm, λem 617 nm), and nuclear blue (λex 350 nm, λem 461 nm) was performed using ImageXpress® Micro Cellular Imaging and Analysis System (Molecular Devices, Sunnyvale, CA) and analyzed by MetaExpress multiwavelength cell scoring program.

Series [2] concerns CSPG production by astrocytes. In words: Western blot of astrocyte conditioned medium, MAB2030 (chondroitin sulfate GAG stubs). It counts as cell-based, mouse. The conditions noted are these: for Reduce CSPG production: astrocytes, significance class. Summed up:
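Astrocytes (1×10^6 cells/well) were treated with 50 μM compound in AIM-V for 48 h, and pooled conditioned medium was concentrated for Western blot. Samples for MAB2030 were digested overnight at 37° C with 0.2 U/ml chondroitinase ABC; 2H6 blots were undigested. ECL band density was normalized to untreated astrocytes on the same gel.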
(In general: A western blot detects proteins with antibodies after separation by electrophoresis.)

Where [3] appears, read: astrocyte conditioned media, 50 μM, 48 hours.

The structures appear in SMILES notation. “Also recorded” adds a separate entry of the source. Read-outs that look alike come from different tables or passages of the source.

For the compound `CCCC(=O)OC1OC(COC(C)=O)[C@@H](F)[C@H](OC(C)=O)C1NC(C)=O` (mixture of isomers) [Compound 8, 2-Acetamido-3,6-di-O-acetyl-1-O-butanoyl-2,4-dideoxy-4-fluoro-α/β-D-glucopyranose], the “toxicity on astrocytes (propidium iodide/calcein AM)” value in series [1] is given as “did not produce toxicity”.
For `CC(=O)NC1C(O)OC(COC(C)=O)[C@@H](F)[C@@H]1OC(C)=O` (mixture of isomers) [Compound 10], the “effect on CSPG production by astrocytes” value in series [2] is recorded as “most effectively reduced CSPG production”. The “toxicity on astrocytes (propidium iodide/calcein AM)” value in series [1] is “did not produce toxicity”.
Take `CC(=O)NC1C(OC(C)=O)OC(COC(C)=O)[C@H](F)[C@@H]1OC(C)=O` (mixture of isomers) [Compound 13, 2-Acetamido-1,3,6-tri-O-acetyl-2,4-dideoxy-4-fluoro-α/β-D-galactopyranose]: the “effect on CSPG production by astrocytes” value in series [2] (setting [3]) was “significantly reduced chondroitin sulfate GAGs; also recorded: most effectively reduced CSPG production”. Further, the “toxicity on astrocytes (propidium iodide/calcein AM)” value in series [1] was “did not produce toxicity”.
Take `CC(=O)NC1C(OC(C)=O)OC(COC(C)=O)C(F)(F)[C@@H]1OC(C)=O` (mixture of isomers) [Compound 16, 2-Acetamido-1,3,6-tri-O-acetyl-2,4-dideoxy-4,4-difluoro-α/β-D-xylo-hexopyranose]: the “effect on CSPG production by astrocytes” value in series [2] (setting [3]) is given as “reduced CSPG production in astrocytes more effectively than Ac-4-F-GlcNAc 3; also recorded: most effectively reduced CSPG production”. In series [1], the “toxicity on astrocytes (propidium iodide/calcein AM)” value was “did not produce toxicity”.
For `CC(=O)N[C@H]1[C@H](OC(C)=O)O[C@H](COC(C)=O)[C@@H](OC(C)=O)[C@@H]1OC(C)=O` [Compound 1, reference compound], in series [2] (setting [3]), the “effect on CSPG production by astrocytes” value is listed as “did not affect CSPG production; also recorded: did not lower CSPG production in astrocytes”. In addition, the “Reduce CSPG production” value in series [2] is recorded as “n.s”.
On to `CC(=O)NC1C(OC(C)=O)OC(COC(C)=O)[C@@H](F)C1OC(C)=O` (stereo partly shown) [Compound 3, reference compound], for which the “effect on CSPG production by astrocytes” value in series [2] (setting [3]) is “most effectively reduced CSPG production”. In series [2], the “Reduce CSPG production” value is given as “*** (***p < 0.001)”. The “toxicity on astrocytes (propidium iodide/calcein AM)” value in series [1] is listed as “did not produce toxicity”.
In the case of `CCC(=O)OC1OC(COC(C)=O)[C@@H](F)[C@H](OC(C)=O)C1NC(C)=O` (stereo partly drawn) [Compound 7, 2-Acetamido-3,6-di-O-acetyl-2,4-dideoxy-4-fluoro-1-O-propanoyl-α/β-D-glucopyranose], the “effect on CSPG production by astrocytes” value in series [2] (setting [3]) was “most effectively reduced CSPG production”. Further, in series [1], the “toxicity on astrocytes (propidium iodide/calcein AM)” value is “did not produce toxicity”.
For `CCCC(=O)OC[C@H]1OC(O)[C@H](NC(C)=O)[C@@H](OC(=O)CCC)[C@@H]1F` (stereo partly drawn) [Compound 12, 2-Acetamido-3,6-di-O-butanoyl-2,4-dideoxy-4-fluoro-α/β-3-D-glucopyranose], the “effect on CSPG production by astrocytes” value in series [2] (setting [3]) was “did not affect CSPG synthesis; also recorded: did not lower CSPG production in astrocytes”. Further, the “Reduce CSPG production” value in series [2] is recorded as “n.s”.
